Data taken from US20170258817A1, “FOSFESTROL FOR USE IN CURATIVE OR PALLIATIVE TREATMENT OF PROSTATE CANCER” (CHAMAELEO PHARMA BVBA, priority 2012, published 2017).
pIC50: −log10 of the molar value.

Legend:
[1] = tested on: DU-145 prostate cancer cells; conditions: through inhibition of microtubule formation; cited from earlier work
prostate cancer cells = conditions: cited from earlier work
prostate cancer = conditions: 5 mg of DES p.o. per day; cited from earlier work
[2] = buccal administration; cited from earlier work
[3] = tested on: LNCaP hormone-dependent prostate cancer cell line; experiment: in vitro direct cytotoxicity, Cell titer blue viability assay; format: cell-based; conditions: Homo sapiens, 72 hrs incubation
Experimental: (§1) Cells were maintained in vitro in RPMI 1640 containing 10% (v/v) heat inactivated fetal bovine serum (FBS) and 2 mM L-glutamine (growth media) at 37° C. in 5% CO2 and humidified conditions. Cells were harvested, washed, re-suspended into growth medium and counted. The cells were re-suspended into assay media (RPMI 1640+1% (v/v) heat inactivated FBS+ and 2 mM L-glutamine) at 0.5×10^5 cells/ml for DU-145 cells and 1×10^5 for LNCaP cells, and plated into 96-well assay plates (Corning, black-wall plates) and 50 μl/well aliquots.
(§2) Plates were incubated O/N at 37° C. in 5% humidified CO2 prior to addition of the compounds. […] Fosfestrol was dissolved in sterile water at stock concentration of 60 mM. Stocks of all compounds were then serially diluted. Final concentrations to which cells were exposed were: 300, 150, 75, 37.5, 18.75, 9.4, 4.7, 2.3, 1.2 and 0.6 μM. Positive control was Taxotere. Taxotere was diluted in 100% DSMO to give a stock concentration of 1 mM. Stock was serial diluted and final concentration to which cells were exposed was: 1000, 333.3, 111.1, 37.0, 12.3, 4.1, 1.4, 0.5, and 0.2 nM.
(§3) Plates were incubated for 72 hrs at 37° C. in 5% humidified CO-2 after addition of the compounds. Viability of the cells was assessed with the Cell titer blue® (Promega) assay. […] Fluorescence was measured with a Flex II station plate reader. […]

[4] = tested on: DU-145 hormone-independent prostate cancer cell line; experiment: as above; format: cell-based; conditions: Homo sapiens; DU-145, 72 hrs incubation
Experimental: as §1, §2, §3

Which results are given for `CC/C(=C(/CC)c1ccc(O)cc1)c1ccc(O)cc1` [DES, diethylstilbestrol]?
effect on DU-145 prostate cancer cells [1]: cytotoxic effects; DES concentrations that do not influence prostate cancer cell growth (prostate cancer cells): up to 100 ng/ml; minimal concentration of DES to induce some cytotoxic effects (prostate cancer cells): 1 µg/mL; increase of non-cancer related deaths, mostly cardiovascular (prostate cancer): 36%; DES plasma level, on average [2]: 11 ng DES/ml; induction of thromboembolic activator (Fibrinogen) [2]: without inducing a thromboembolic activator (Fibrinogen)

With `CC(=O)O[C@@]12CO[C@@H]1C[C@H](O)[C@@]1(C)C(=O)[C@H](O)C3=C(C)[C@@H](OC(=O)[C@H](O)[C@@H](NC(=O)OC(C)(C)C)c4ccccc4)C[C@@](O)([C@@H](OC(=O)c4ccccc4)[C@H]21)C3(C)C` [Taxotere] as the compound, how does the pIC50 [3] read?
Its pIC50 is 8.70.

What about the pIC50 [4] of the same compound?
Its pIC50 is 8.40.
